Experimental data published in US7572606B1 (Nereus Pharmaceuticals, Inc., priority 2005, dated 2009).

Assays:
[1] = tested on: p21 and p27 in HEK293 cells and HEK293 NF-κB/Luciferase reporter clone; assay: Western blot of cell cycle regulatory proteins; format: cell-based, human; details: various concentrations, preliminary results
Text: The ubiquitin-proteasome pathway is an essential proteolytic system involved in cell cycle control by regulating the degradation of cyclins and cyclin-dependent kinase (Cdk) inhibitors such as p21 and p27. Pagano, et al., Science 269:682 (1995), Kisselev, et al., Chem Biol 8:739 (2001), King, et al., Science 274:1652 (1996). Furthermore, p21 and p27 protein levels are increased in the presence of proteasome inhibitors. Fukuchi, et al., Biochim Biophys Acta 1451:206 (1999), Takeuchi, et al., Jpn J Cancer Res 93:774 (2002).
The Western blots presented in FIG. 33 were reprobed using antibodies against p21 and p27 to determine the endogenous level of each protein and anti-Tubulin antibody was used to confirm equal loading of protein.

LPS-induced plasma TNF = assay: Inhibition of in vivo LPS-induced TNF; set-up: species or system male Swiss Webster mice; details: 0.125 or […] i.v., 30 minutes post-LPS (2 mg/kg i.p.)
Protocol: The following methods outline the protocol design for these studies.
Male Swiss Webster mice (12/group weighing 20-25 g) were injected with LPS (2 mg/kg) by the i.p. route. […] Ninety minutes after LPS injection, the mice were anesthetized with Isoflurane and bled by cardiac puncture to obtain plasma. Remaining blood pellet was then resuspended in 500 μL of PBS to wash away residual serum proteins and centrifuged again. Supernatant was removed and blood pellet frozen for analysis of proteasome inhibition in packed whole blood lysate.
Animals were dosed i.v. with 4 ml/kg. A vehicle control solution was also prepared by making the same 1:160 dilution with 100% DMSO into 10% solutol solution giving a final concentration of 9.375% solutol in water and 0.625% DMSO. Measurements of plasma TNF were performed using the Biosource mTNF Cytoset kit (Biosource Intl., Camarillo, Calif.; catalog # CMC3014) according to manufacturer's instructions. Samples were diluted 1:60 for the assay.

[2] = tested on: VEGF-induced migration of multiple myeloma cells; assay: Transwell migration assay; format: cell-based
Protocol: The compounds disclosed herein inhibit angiogenesis. […] The other compounds disclosed herein are tested in a transwell migration assay and inhibit migration.

C[C@@]12OC(=O)[C@]1([C@@H](O)[C@@H]1C=CCCC1)NC(=O)[C@@H]2CCCl [Formula II-16, Salinosporamide A]
p21 and p27 protein levels [1]: p21 and p27 protein levels were elevated
reduction of LPS-induced plasma TNF levels (LPS-induced plasma TNF): approximately 65%
VEGF-induced migration of multiple myeloma cells [2]: blocked vascular endothelial growth-factor (VEGF)-induced migration of multiple myeloma cells
